Measured values published in patent US5248807A, “Triterpene derivatives” (Shionogi & Co., Ltd., priority 1991, dated 1993).

How the values were obtained:
[1] = tested on: endothelin-1-induced increase in cytosolic calcium ion concentration (rat aortic smooth muscle A7r5 cells); experiment: Inhibition of the endothelin-1-induced increase in cytosolic calcium ion concentration in A7r5 cells; type: cell-based; conditions: fura-2, 1 min pre-incubation, 10^-8 M endothelin-1, read-out: IC50 (concentration to inhibit the endothelin-1-induced increase in cytosolic calcium ion by 50%)
Method: Inhibition of the endothelin-1-induced increase in cytosolic calcium ion concentration
To a cuvette was put the suspension of rat aortic smooth muscle A7r5 cells, obtained from Dainippon Pharmaceutical Co., Ltd., loaded with 2 μM of fura-2 (Dojindo), then the change in fluorescence intensity was determined with a calcium analizer (CAF100, Nippon Bunkou Co.). In the determination,the exciting was performed at 340 nm and 380 nm and the recording at 510 nm. Calculation for the concentration of cytosolic calcium ion was performed according to the method of Grynkiewicz et al. (J.Biol.Chem., 260, P. 3440-3450, 1985). The experiment was performed as follows: at first, the present compounds were added to the cell suspension in the cuvette and the mixture was incubated for 1 min. Then, 10^-8 M of endothelin-1 was added thereto and the change in fluorescence intensity was determined. The concentration of the present compounds to inhibit the endothelin-1-induced increase in cytosolic calcium ion by 50%, (i.e., IC50) is shown at Table 2.

[2] = target: T1, endothelin-receptor (membrane fraction of the media from porcine aorta) (Sus scrofa, UniProt Q29010); experiment: Inhibitory effect on the binding of 125I-endothelin-1 to the receptor, media of porcine aorta membrane; conditions: 25 pM 125I-endothelin-1, 37° C., 1 hour, read-out: IC50 (concentration to inhibit 50% of the specific binding of 125I-endothelin-1)
T1 construct: Membrane fractions were prepared from porcine and rat hearts, rat thoracic aorta, and the media of porcine aorta; from tissue; host or cells: media of porcine aorta, membrane fraction
T1 sequence (Q29010 21-427): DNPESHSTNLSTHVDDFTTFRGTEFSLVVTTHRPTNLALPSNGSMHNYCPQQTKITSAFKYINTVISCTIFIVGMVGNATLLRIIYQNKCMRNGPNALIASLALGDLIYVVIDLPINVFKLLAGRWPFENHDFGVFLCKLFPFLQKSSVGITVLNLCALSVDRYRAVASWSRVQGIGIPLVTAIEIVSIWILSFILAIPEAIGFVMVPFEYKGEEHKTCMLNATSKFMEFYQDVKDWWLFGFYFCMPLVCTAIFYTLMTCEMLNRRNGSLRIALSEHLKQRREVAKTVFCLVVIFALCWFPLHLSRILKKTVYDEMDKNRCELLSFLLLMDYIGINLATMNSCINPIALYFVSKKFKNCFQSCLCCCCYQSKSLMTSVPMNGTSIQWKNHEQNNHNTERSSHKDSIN
Method: (§1) Inhibitory Effect on the Binding of ^125 I-Endothelin-1 to the Receptor
(§2) Membrane fractions were prepared from porcine and rat hearts, rat thoracic aorta, and the media of porcine aorta. Each membrane fraction was incubated, in the presence or absence of the present compound 1 with 25 pM of ^125 I-endothelin-1 at 37° C. for 1 hour. After the reaction was completed, ^125 I-endothelin-1 bound to each membrane fraction was separated by rapid filtration through glass fiber filters and its radioactivity was determined with a gamma-counter. The specific binding was calculated by subtracting, from the total binding, the non-specific binding which was determined in the presence of 10^-7 M of non-radioactive endothelin-1. The concentration of the present compound 1 to inhibit 50% of the specific binding (i.e., IC50) is shown at Table 1.

[3] = target: T2, endothelin-receptor (membrane fraction of porcine heart) (Sus scrofa, UniProt Q29010); experiment: Inhibitory effect on the binding of 125I-endothelin-1 to the receptor, porcine heart membrane; conditions: 25 pM 125I-endothelin-1, 37° C., 1 hour, read-out: IC50 (concentration to inhibit 50% of the specific binding of 125I-endothelin-1)
T2 construct: Membrane fractions were prepared from porcine and rat hearts; from tissue; host or cells: porcine heart, membrane fraction
T2 sequence (Q29010 21-427): T1 sequence (Q29010 21-427)
Method: as §1, §2

[4] = target: T3, endothelin-receptor (membrane fraction of rat aorta) (Rattus norvegicus, UniProt P26684); experiment: Inhibitory effect on the binding of 125I-endothelin-1 to the receptor, rat aorta membrane; conditions: 25 pM 125I-endothelin-1, 37° C., 1 hour, read-out: IC50 (concentration to inhibit 50% of the specific binding of 125I-endothelin-1)
T3 construct: Membrane fractions were prepared from porcine and rat hearts, rat thoracic aorta, and the media of porcine aorta; from tissue; host or cells: rat thoracic aorta, membrane fraction
T3 sequence (P26684 21-426): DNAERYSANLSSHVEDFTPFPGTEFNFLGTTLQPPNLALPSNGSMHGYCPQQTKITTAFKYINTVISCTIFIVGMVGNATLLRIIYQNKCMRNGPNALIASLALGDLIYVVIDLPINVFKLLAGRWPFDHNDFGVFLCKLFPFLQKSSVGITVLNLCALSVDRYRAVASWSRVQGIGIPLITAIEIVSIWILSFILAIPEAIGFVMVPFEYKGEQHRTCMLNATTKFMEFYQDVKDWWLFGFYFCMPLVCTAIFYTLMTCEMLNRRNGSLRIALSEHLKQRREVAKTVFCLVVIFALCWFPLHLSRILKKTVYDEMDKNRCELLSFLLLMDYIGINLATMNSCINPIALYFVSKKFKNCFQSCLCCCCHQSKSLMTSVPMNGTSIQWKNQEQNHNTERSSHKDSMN
Method: as §1, §2

Compound	IC50 [1]	further results
CC1(C)CCC2(C(=O)O)CCC3(COC(=O)C=Cc4cccc(OS(=O)(=O)O)c4)C(=CCC4C5(C)CCC(=O)C(C)(C)C5CCC43C)C2C1 (stereo not drawn) [Compound 6]	14 nM	
CC1(C)CCC2(C(=O)O)CCC3(COC(=O)C=Cc4cccc(OC(=O)CCC(=O)O)c4)C(=CCC4C5(C)CCC(=O)C(C)(C)C5CCC43C)C2C1 (stereo not drawn) [Compound 7]	9 nM	
CC(=O)Oc1cc(C=CC(=O)OCC23CCC4(C(=O)O)CCC(C)(C)CC4C2=CCC2C4(C)CCC(=O)C(C)(C)C4CCC23C)cc(OC(C)=O)c1 (stereo not drawn) [Compound 8]	260 nM	
CC1(C)CCC2(C(=O)O)CCC3(COC(=O)C=Cc4ccccc4O)C(=CCC4C5(C)CCC(=O)C(C)(C)C5CCC43C)C2C1 (stereo not drawn) [Compound 12]	27 nM	
CC1(C)CCC2(C(=O)O)CCC3(COC(=O)C=Cc4ccc(O)c(O)c4)C(=CCC4C5(C)CCC(=O)C(C)(C)C5CCC43C)C2C1 (stereo not drawn) [Compound 1]	11 nM	IC50 [2]: 32 nM; IC50 [3]: 83 nM; IC50 [4]: 56 nM
CC1(C)CCC2(C(=O)O)CCC3(COC(=O)C=Cc4cc(O)cc(O)c4)C(=CCC4C5(C)CCC(=O)C(C)(C)C5CCC43C)C2C1 (stereo not drawn) [Compound 9]	4.5 nM	
CC1(C)CCC2(C(=O)O)CCC3(COC(=O)C=Cc4ccccn4)C(=CCC4C5(C)CCC(=O)C(C)(C)C5CCC43C)C2C1 (stereo not drawn) [Compound 13]	25 nM	
CC1(C)CCC2(C(=O)O)CCC3(COC(=O)C=Cc4ccc(O)cc4)C(=CCC4C5(C)CCC(=O)C(C)(C)C5CCC43C)C2C1 (stereo not drawn) [Compound 11]	27 nM	
CC(=O)Oc1ccc(C=CC(=O)OCC23CCC4(C(=O)O)CCC(C)(C)CC4C2=CCC2C4(C)CCC(=O)C(C)(C)C4CCC23C)cc1 (stereo not drawn) [Compound 10]	180 nM	
CC1(C)CCC2(C(=O)O)CCC3(COC(=O)C=Cc4cccc(O)c4)C(=CCC4C5(C)CCC(=O)C(C)(C)C5CCC43C)C2C1 (stereo not drawn) [Compound 5]	11 nM	
CC1(C)CCC2(C(=O)O)CCC3(COC(=O)C=Cc4ccccc4)C(=CCC4C5(C)CCC(=O)C(C)(C)C5CCC43C)C2C1 (stereo not drawn) [Compound 3]	18 nM	
CC(=O)Oc1cccc(C=CC(=O)OCC23CCC4(C(=O)O)CCC(C)(C)CC4C2=CCC2C4(C)CCC(=O)C(C)(C)C4CCC23C)c1 (stereo not drawn) [Compound 4]	34 nM	
